From EP2298778A1, “IMIDAZOTHIAZOLE DERIVATIVE HAVING 4,7-DIAZASPIROÝ2.5¨OCTANE RING STRUCTURE” (Daiichi Sankyo Company, Limited, priority 2008, dated 2009) come the findings set out here.

Some results are limits rather than exact numbers.

The nature of the series: Metabolic stability test (microsomal metabolism test). It counts as in vitro ADME. As to conditions: pH 7.4; human-derived liver microsomes, test compound remaining after addition of NADP+ and incubation at 37°C for 30 minutes; read-out: metabolic stability of T/C%. In a few lines:
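Test compound was added as a 3 µM solution to human liver microsomes (0.3–1.5 mgP/mL) in pH 7.4 phosphate buffer with G6P, G6P dehydrogenase and MgCl2. This was preincubated 20 min at 37°C, then 3 mM NADP+ solution was added and incubated 30 min at 37°C. T/C (%) is compound remaining after versus before NADP+ addition.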

In the case of `CC[C@H]1CNC2(CC2)CN1C(=O)[C@@H]1CC[C@@H](C)N1C(=O)C1=C(C(C)C)N2C(=N[C@@](C)(c3ccc(Cl)nc3)[C@H]2c2ccc(Cl)c(F)c2)S1` [Example 58, (6S)-7-[(5R)-1-{[(5R,6S)-5-(4-chloro-3-fluorophenyl)-6-(6-chloropyridin-3-yl)-3-isopropyl-6-methyl-5,6-dihydroimidazo[2,1-b][1,3]thiazol-2-yl]carbonyl}-5-methyl-L-prolyl]-6-ethyl-4,7-diazaspiro[2.5]octane], the remaining at 0.5 h was at least 50%.
Then `CC[C@@H]1CNC2(CC2)CN1C(=O)[C@@H]1CC[C@@H](C)N1C(=O)C1=C(C(C)C)N2C(=N[C@@](C)(c3ccc(Cl)nc3)[C@H]2c2ccc(Cl)c(F)c2)S1` [Example 59, (6R)-7-[(5R)-1-{[(5R,6S)-5-(4-chloro-3-fluorophenyl)-6-(6-chloropyridin-3-yl)-3-isopropyl-6-methyl-5,6-dihydroimidazo[2,1-b][1,3]thiazol-2-yl]carbonyl}-5-methyl-L-prolyl]-6-ethyl-4,7-diazaspiro[2.5]octane], with at least 50%.
Then `CC(C)C1=C(C(=O)N2[C@H](C)CC[C@H]2C(=O)N2CC3(CC3)N(C(=O)C(F)(F)F)C[C@@H]2C)SC2=N[C@@](C)(c3ccc(Cl)nc3)[C@@H](c3ccc(Cl)c(F)c3)N21` [Example 60, (6S)-7-[(5R)-1-{[(5R, 6S)-5-(4-chloro-3-fluorophenyl)-6-(6-chloropyridin-3-yl)-3-isopropyl-6-methyl-5,6-dihydroimidazo[2,1-b][1,3]thiazol-2-yl]carbonyl}-5-methyl-L-prolyl]-6-methyl-4-(trifluoroacetyl)-4,7-diazaspiro[2.5]octane], with at least 50%; and `CC[C@H]1CNC2(CC2)CN1C(=O)[C@@H]1CCCN1C(=O)C1=C(C(C)C)N2C(=N[C@@](C)(c3ccc(Cl)nc3)[C@H]2c2ccc(Cl)c(F)c2)S1` [Example 61, (6S)-7-(1-{[(5R,6S)-5-(4-chloro-3-fluorophenyl)-6-(6-chloropyridin-3-yl)-3-isopropyl-6-methyl-5,6-dihydroimidazo[2,1-b][1,3]thiazol-2-yl]carbonyl}-L-prolyl)-6-ethyl-4,7-diazaspiro[2.5]octane], with at least 50%; and `CC[C@@H]1CNC2(CC2)CN1C(=O)[C@@H]1CCCN1C(=O)C1=C(C(C)C)N2C(=N[C@@](C)(c3ccc(Cl)nc3)[C@H]2c2ccc(Cl)c(F)c2)S1` [Example 62, (6R)-7-(1-{[(5R,6S)-5-(4-chloro-3-fluorophenyl)-6-(6-chloropyridin-3-yl)-3-isopropyl-6-methyl-5,6-dihydroimidazo[2,1-b][1,3]thiazol-2-yl]carbonyl}-L-prolyl)-6-ethyl-4,7-diazaspiro[2.5]octane], with at least 50%.
For `CO[C@@H]1C[C@@H](C(=O)N2CC3(CC3)NC[C@@H]2C)N(C(=O)C2=C(C(C)C)N3C(=N[C@@](C)(c4ccc(Cl)nc4)[C@H]3c3ccc(Cl)c(F)c3)S2)C1` [Example 63, (6S)-7-[(4R)-1-{[(5R,6S)-5-(4-chloro-3-fluorophenyl)-6-(6-chloropyridin-3-yl)-3-isopropyl-6-methyl-5,6-dihydroimidazo[2,1-b][1,3]thiazol-2-yl]carbonyl}-4-methoxy-L-prolyl]-6-methyl-4,7-diazaspiro[2.5]octane], the remaining at 0.5 h was at least 50%.
Turning to `CC(C)C1=C(C(=O)N2CCC[C@H]2C(=O)N2CC3(CC3)NC[C@H]2C)SC2=N[C@@](C)(c3ccc(Cl)nc3)[C@@H](c3ccc(Cl)c(F)c3)N21` [Example 64, (6R)-7-(1-{[(5R,6S)-5-(4-chloro-3-fluorophenyl)-6-(6-chloropyridin-3-yl)-3-isopropyl-6-methyl-5,6-dihydroimidazo[2,1-b][1,3]thiazol-2-yl]carbonyl}-L-prolyl)-6-methyl-4,7-diazaspiro[2.5]octane], the remaining at 0.5 h was at least 50%.
Then `CC(C)C1=C(C(=O)N2[C@@H](C)CC[C@H]2C(=O)N2CC3(CC3)NC[C@@H]2C)SC2=N[C@@](C)(c3ccc(Cl)nc3)[C@@H](c3ccc(Cl)c(F)c3)N21` [Example 65, (6S)-7-[(5S)-1-{[(5R,6S)-5-(4-chloro-3-fluorophenyl)-6-(6-chloropyridin-3-yl)-3-isopropyl-6-methyl-5,6-dihydroimidazo[2,1-b][1,3]thiazol-2-yl]carbonyl}-5-methyl-L-prolyl]-6-methyl-4,7-diazaspiro[2.5]octane], with at least 50%.
For `CC(C)C1=C(C(=O)N2C[C@@](C)(O)C[C@H]2C(=O)N2CC3(CC3)NC[C@@H]2C)SC2=N[C@@](C)(c3ccc(Cl)nc3)[C@@H](c3ccc(Cl)c(F)c3)N21` [Example 68, (3S,5S)-1-{[(5R,6S)-5-(4-chloro-3-fluorophenyl)-6-(6-chloropyridin-3-yl)-3-isopropyl-6-methyl-5,6-dihydroimidazo[2,1-b][1,3]thiazol-2-yl]carbonyl}-3-methyl-5-{[(6S)-6-methyl-4,7-diazaspiro[2.5]oct-7-yl]carbonyl}pyrrolidin-3-ol], the remaining at 0.5 h is at least 50%.
Take `CC(C)C1=C(C(=O)N2C[C@@H]3C[C@@H]3[C@H]2C(=O)N2CC3(CC3)NC[C@@H]2C)SC2=N[C@@](C)(c3ccc(Cl)nc3)[C@@H](c3ccc(Cl)c(F)c3)N21` [Example 69, (65)-7-{[(1S,25,5R)-3-{[(5R,65)-5-(4-chloro-3-fluorophenyl)-6-(6-chloropyridin-3-yl)-3-isopropyl-6-methyl-5,6-dihydroimidazo[2,1-b][1,3]thiazol-2-yl]carbonyl}-3-azabicyclo[3.1.0]hex-2-yl]carbonyl}-6-methyl-4,7-diazaspiro[2.5]octane]: the remaining at 0.5 h is at least 50%.
`CC(C)C1=C(C(=O)N2[C@@H]3C[C@@H]3C[C@H]2C(=O)N2CC3(CC3)NC[C@@H]2C)SC2=N[C@@](C)(c3ccc(Cl)nc3)[C@@H](c3ccc(Cl)c(F)c3)N21` [Example 70, (6S)-7-{[(1R,3S,5R)-2-{[(5R,6S)-5-(4-chloro-3-fluorophenyl)-6-(6-chloropyridin-3-yl)-3-isopropyl-6-methyl-5,6-dihydroimidazo[2,1-b][1,3]thiazol-2-yl]carbonyl}-2-azabicyclo[3.1.0]hex-3-yl]carbonyl}-6-methyl-4,7-diazaspiro[2.5]octane]: the remaining at 0.5 h was at least 50%.
The result for `CC(C)C1=C(C(=O)N2[C@H](C)CC[C@H]2C(=O)N2CCNC3(CC3)C2)SC2=N[C@@](C)(c3ccc(Cl)nc3)[C@@H](c3ccc(Cl)c(O)c3)N21` [Example 71, 2-chloro-5-[(5R,6S)-6-(6-chloropyridin-3-yl)-2-{[(2S,5R)-2-(4,7-diazaspiro[2.5]oct-7-ylcarbonyl)-5-methylpyrrolidin-1-yl]carbonyl}-3-isopropyl-6-methyl-5,6-dihydroimidazo[2,1-b][1,3]thiazol-5-yl]phenol] reads at least 50%; that for `COc1ccc([C@]2(C)N=C3SC(C(=O)N4[C@H](C)CC[C@H]4C(=O)N4CCNC5(CC5)C4)=C(C(C)C)N3[C@@H]2c2ccc(Cl)c(F)c2)cc1` [Example 72, 7-[(5R)-1-{[(5R,6S)-5-(4-chloro-3-fluorophenyl)-3-isopropyl-6-(4-methoxyphenyl)-6-methyl-5,6-dihydroimidazo[2,1-b][1,3]thiazol-2-yl]carbonyl}-5-methyl-L-prolyl]-4,7-diazaspiro[2.5]octane], at least 50%; that for `CCOc1ccc([C@]2(C)N=C3SC(C(=O)N4[C@H](C)CC[C@H]4C(=O)N4CCNC5(CC5)C4)=C(C(C)C)N3[C@@H]2c2ccc(Cl)c(F)c2)cn1` [Example 73, 7-[(5R)-1-{[(5R,6S)-5-(4-chloro-3-fluorophenyl)-6-(6-ethoxypyridin-3-yl)-3-isopropyl-6-methyl-5,6-dihydroimidazo [2,1-b] [1,3]-thiazol-2-yl]-carbonyl}-5-methyl-L-prolyl]-4,7-diazaspiro[2.5]octane], at least 50%.
Then `CC(C)C1=C(C(=O)N2[C@H](C)CC[C@H]2C(=O)N2CCNC3(CC3)C2)SC2=N[C@@](C)(c3ccc(Cl)nc3)[C@@H](c3ccc(C(F)(F)F)c(F)c3)N21` [Example 74, 7-[(5R)-1-({(5R,6S)-6-(6-chloropyridin-3-yl)-5-[3-fluoro-4-(trifluoromethyl)phenyl]-3-isopropyl-6-methyl-5,6-dihydroimidazo[2,1-b][1,3]thiazol-2-yl}carbonyl)-5-methyl-L-prolyl]-4,7-diazaspiro[2.5]octane], with at least 50%.
